Assay [1] concerns the target T1, recombinant, N-terminally GST-tagged ATAD2 bromodomain amino acids 981-1108 (Homo sapiens, UniProt Q6PL18).
T1 construct: ATAD2 bromodomain amino acids 981-1108; made in house; host or cells: E. coli
T1 sequence (Q6PL18 981-1108): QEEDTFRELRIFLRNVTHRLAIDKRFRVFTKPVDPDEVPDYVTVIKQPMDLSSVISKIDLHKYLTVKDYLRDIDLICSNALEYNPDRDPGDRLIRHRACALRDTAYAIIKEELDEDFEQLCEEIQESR
Briefly: TR-FRET assay: disruption of the interaction between ATAD2 and acetylated Histone H4 (Ac-H4) peptide. Type of assay: binding. Conditions: inhibition of ATAD2/Ac-H4 complex formation; 10 nM ATAD2, 50 nM Ac-H4 peptide. A digest of the protocol: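 10 nM protein (final) pre-incubated 10 min at 22 °C with compound (0.1 nM-20 μM, 11 points, duplicate), then 50 nM biotinylated Ac-H4 peptide plus anti-GST-XL665/streptavidin-Eu added for 1 h at 22 °C in HEPES pH 7.5 buffer. 665/622 nm emission ratio read; IC50 from 4-parameter fit of normalized inhibition.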

For the next assay, the system named is MCF7 breast cancer cells. In words: Cell proliferation assay (alamarBlue), MCF7. In kind it is cell-based. Conditions: Homo sapiens, 72 h incubation, GI50 = half-maximal growth inhibition. As to the method:
(§1) The effect of ATAD2 inhibitory compounds on cancer cell proliferation might be measured as below. For example; MCF7 breast cancer cells might be seeded into 96-well microtiter plates at 2000 cells/well in 90 μl cell culture media (RPMI 1640, 10% FCS, 2 mM L-Glutamine, 10 μg/ml human Insulin, […]) and incubated for 24 h at 37° C. and 5% CO2. Note, the culturing conditions might vary from cell line to cell line depending on their standard culturing conditions. Compounds might be then delivered to the microtiter assay plates and, following a 72 h long incubation period at 37° C. and 5% CO2, the viability of the cells might be measured with addition of alamarBlue® (Invitrogen) to the medium in Victor X3 Multilabel Plate Reader (Perkin Elmer).
(§2) GI50 means half-maximal growth inhibition.
(In general: Resazurin is reduced to fluorescent resorufin, in cell work by metabolically active cells.)

The next assay has as its system NCl-H526 lung cancer. Briefly: Cell proliferation assay (alamarBlue), NCl-H526. Type of assay: cell-based. As to conditions: GI50 = half-maximal growth inhibition. On the procedure: as §1, §2

As usually defined, the IC50 is the concentration that gives 50% inhibition. The GI50 is the concentration that inhibits growth by half.

Take `Cc1ccc([C@@H](C)NCc2ccc(-c3ccc(Cl)c(C(=O)N[C@@H](CO)Cc4ccc(C#N)cc4)c3)o2)cc1` [Example 4, 2-chloro-N-[(2R)-1-(4-cyanophenyl)-3-hydroxypropan-2-yl]-5-[5-({[(1R)-1-(4-methylphenyl)ethyl]amino}methyl)-2-furyl]benzamide]: the 50% inhibitory concentration (IC50) in assay [1] came to 393 nM. In addition, the GI50 amounted to 11500 nM in the assay on MCF7 breast cancer cells and 15400 nM in the assay on NCl-H526 lung cancer.

For `Cc1ccc([C@@H](C)NCc2ccc(-c3ccc(Cl)c(C(=O)N[C@@H](CCN4CC5(CN(C)C5)C4)Cc4ccc(C#N)cc4)c3)o2)cc1` [Example 36, 2-chloro-N-[(2R)-1-(4-cyanophenyl)-4-(6-methyl-2,6-diazaspiro[3.3]hept-2-yl)butan-2-yl]-5-[5-({[(1R)-1-(4-methylphenyl)ethyl]amino}methyl)-2-furyl]benzamide], the IC50 in assay [1] turned out to be 186 nM. Moreover, the GI50 was 1280 nM in the assay on MCF7 breast cancer cells and 1290 nM with NCl-H526 lung cancer.

`Cc1ccc([C@@H](C)NCc2ccc(-c3ccc(Cl)c(C(=O)N[C@@H](CNC[C@@H]4[C@H]5CNC[C@@H]45)Cc4ccc(C#N)cc4)c3)o2)cc1` [Example 66, N-[(2R)-1-{[(1R,5S,6r)-3-azabicyclo[3.1.0]hex-6-ylmethyl]amino}-3-(4-cyanophenyl)propan-2-yl]-2-chloro-5-[5-({[(1R)-1-(4-methylphenyl)ethyl]amino}methyl)-2-furyl]benzamide]: in assay [1], the IC50 amounted to 245 nM. In addition, the GI50 in the assay with MCF7 breast cancer cells stood at 3760 nM; with NCl-H526 lung cancer, 5100 nM.

As to `Cc1ccc([C@@H](C)NCc2ccc(-c3cc(C(=O)N[C@@H](CO)Cc4ccc(C#N)cc4)c(Cl)cc3O)o2)cc1` [Example 90, 2-chloro-N-[(2R)-1-(4-cyanophenyl)-3-hydroxypropan-2-yl]-4-hydroxy-5-[5-({[(1R)-1-(4-methylphenyl)ethyl]amino}methyl)-2-furyl]benzamide], in assay [1], the half-maximal inhibitory concentration (IC50) is 367 nM. Also, the values for the GI50 in the assay on MCF7 breast cancer cells and in the assay with NCl-H526 lung cancer were 10800 nM and 19100 nM, respectively.

With `Cc1ccc([C@@H](C)NCc2ccc(-c3ccc(Cl)c(C(=O)N[C@@H](CC(N)=O)Cc4ccc(C#N)cc4)c3)o2)cc1` [Example 3, N-[(2R)-4-amino-1-(4-cyanophenyl)-4-oxobutan-2-yl]-2-chloro-5-[5-({[(1R)-1-(4-methylphenyl)ethyl]amino}methyl)furan-2-yl]benzamide], the IC50 in assay [1] was found to be 927 nM.

`Cc1ccc([C@@H](C)NCc2ccc(-c3ccc(Cl)c(C(=O)N[C@@H](CCN[C@H]4CCN(C)C4)Cc4ccc(C#N)cc4)c3)o2)cc1` [Example 35, 2-chloro-N-[(2R)-1-(4-cyanophenyl)-4-{[(3S)-1-methylpyrrolidin-3-yl]amino}butan-2-yl]-5-[5-({[(1R)-1-(4-methylphenyl)ethyl]amino}methyl)-2-furyl]benzamide]: in assay [1], the IC50 is 466 nM.

Turning to `Cc1ccc([C@@H](C)NCc2ccc(-c3ccc(Cl)c(C(=O)N[C@@H](CC(=O)N(C)C)Cc4ccc(C#N)cc4)c3)o2)cc1` [Example 1, 2-Chloro-N-[(2R)-1-(4-cyanophenyl)-4-(dimethylamino)-4-oxobutan-2-yl]-5-[5-({[(1R)-1-(4-methylphenyl)ethyl]amino}methyl)furan-2-yl]benzamide], the IC50 in assay [1] is 740 nM.

`Cc1ccc([C@@H](C)NCc2ccc(-c3ccc(Cl)c(C(=O)N[C@@H](CCN4CCN(C)C[C@@H]4C)Cc4ccc(C#N)cc4)c3)o2)cc1` [Example 31, 2-chloro-N-{(2R)-1-(4-cyanophenyl)-4-[(2S)-2,4-dimethylpiperazin-1-yl]butan-2-yl}-5-[5-({[(1R)-1-(4-methylphenyl)ethyl]amino}methyl)-2-furyl]benzamide]: the IC50 in assay [1] came out at 297 nM.

On to `Cc1ccc([C@@H](C)NCc2ccc(-c3ccc(Cl)c(C(=O)N[C@@H](CNCCO)Cc4ccc(C#N)cc4)c3)o2)cc1` [Example 23, 2-chloro-N-{(2R)-1-(4-cyanophenyl)-3-[(2-hydroxyethyl)amino]propan-2-yl}-5-[5-({[(1R)-1-(4-methylphenyl)ethyl]amino}methyl)-2-furyl]benzamide], for which the IC50 in assay [1] was 561 nM.

Consider `Cc1ccc([C@@H](C)NCc2ccc(-c3ccc(Cl)c(C(=O)N[C@@H](CO)Cc4cccc(C#N)c4)c3)o2)cc1` [Example 44, 2-chloro-N-[(2R)-1-(3-cyanophenyl)-3-hydroxypropan-2-yl]-5-[5-({[(1R)-1-(4-methylphenyl)ethyl]amino}methyl)-2-furyl]benzamide], for which the IC50 in assay [1] was found to be 1600 nM.

For `Cc1ccc([C@@H](C)NCc2ccc(-c3ccc(Cl)c(C(=O)N[C@@H](CC(=O)NCCCO)Cc4ccc(C#N)cc4)c3)o2)cc1` [Example 8, 2-chloro-N-{(2R)-1-(4-cyanophenyl)-4-[(3-hydroxypropyl)amino]-4-oxobutan-2-yl}-5-[5-({[(1R)-1-(4-methylphenyl)ethyl]amino}methyl)-2-furyl]benzamide], the IC50 in assay [1] was 898 nM.

In the case of `Cc1ccc([C@@H](C)NCc2ccc(-c3cc(C(=O)N[C@@H](CO)Cc4ccc(C#N)cc4)ccc3C#N)o2)cc1` [Example 79, 4-cyano-N-[(2R)-1-(4-cyanophenyl)-3-hydroxypropan-2-yl]-3-[5-({[(1R)-1-(4-methylphenyl)ethyl]amino}methyl)-2-furyl]benzamide], the half-inhibitory concentration (IC50) in assay [1] turned out to be 1400 nM.

As to `Cc1ccc([C@@H](C)NCc2ccc(-c3ccc(Cl)c(C(=O)N[C@H](Cc4ccc(C#N)cc4)CN4CCCC4)c3)o2)cc1` [Example 49, 2-chloro-N-[(2R)-1-(4-cyanophenyl)-3-(pyrrolidin-1-yl)propan-2-yl]-5-[5-({[(1R)-1-(4-methylphenyl)ethyl]amino}methyl)-2-furyl]benzamide], in assay [1], the IC50 was 1760 nM.

Regarding `Cc1ccc([C@@H](C)NCc2ccc(-c3ccc(Cl)c(C(=O)N[C@@H](CO)Cc4ccc(C#N)c(N)c4)c3)o2)cc1` [Example 40, N-[(2R)-1-(3-amino-4-cyanophenyl)-3-hydroxypropan-2-yl]-2-chloro-5-[5-({[(1R)-1-(4-methylphenyl)ethyl]amino}methyl)-2-furyl]benzamide], the concentration for half-maximal inhibition (IC50) in assay [1] worked out at 781 nM.

In the case of `Cc1ccc([C@@H](C)NCc2ccc(-c3ccc(Cl)c(C(=O)N[C@@H](CO)Cc4ccncc4)c3)o2)cc1` [Example 47, 2-chloro-N-[(2R)-1-hydroxy-3-(pyridin-4-yl)propan-2-yl]-5-[5-({[(1R)-1-(4-methylphenyl)ethyl]amino}methyl)-2-furyl]benzamide], the IC50 in assay [1] stood at 2100 nM.

In the case of `Cc1ccc([C@@H](C)NCc2ccc(-c3ccc(Cl)c(C(=O)N[C@H](Cc4ccc(C#N)cc4)C(C)(C)O)c3)o2)cc1` [Example 12, 2-chloro-N-[(2R)-1-(4-cyanophenyl)-3-hydroxy-3-methylbutan-2-yl]-5-[5-({[(1R)-1-(4-methylphenyl)ethyl]amino}methyl)-2-furyl]benzamide], the 50% inhibitory concentration (IC50) in assay [1] came to 668 nM.

Regarding `Cc1ccc([C@@H](C)NCc2ccc(-c3ccc(Cl)c(C(=O)N[C@@H](CNC(=O)C4CCNCC4)Cc4ccc(C#N)cc4)c3)o2)cc1` [Example 56, N-[(2R)-2-({2-chloro-5-[5-({[(1R)-1-(4-methylphenyl)ethyl]amino}methyl)-2-furyl]benzoyl}amino)-3-(4-cyanophenyl)propyl]piperidine-4-carboxamide], the IC50 in assay [1] is 510 nM.

`CC(=O)NC[C@@H](Cc1ccc(C#N)cc1)NC(=O)c1cc(-c2ccc(CN[C@H](C)c3ccc(C)cc3)o2)ccc1Cl` [Example 43, N-[(2R)-1-acetamido-3-(4-cyanophenyl)propan-2-yl]-2-chloro-5-[5-({[(1R)-1-(4-methylphenyl)ethyl]amino}methyl)-2-furyl]benzamide]: the 50% inhibitory concentration (IC50) in assay [1] came out at 1710 nM.

Regarding `Cc1ccc([C@@H](C)NCc2ccc(-c3ccc(Cl)c(C(=O)N[C@@H](CCN[C@@H]4CCN(C)C4)Cc4ccc(C#N)cc4)c3)o2)cc1` [Example 34, 2-chloro-N-[(2R)-1-(4-cyanophenyl)-4-{[(3R)-1-methylpyrrolidin-3-yl]amino}butan-2-yl]-5-[5-({[(1R)-1-(4-methylphenyl)ethyl]amino}methyl)-2-furyl]benzamide], the IC50 in assay [1] was 423 nM.

As for `Cc1ccc([C@@H](C)NCc2ccc(-c3ccc(Cl)c(C(=O)N[C@@H](CNS(C)(=O)=O)Cc4ccc(C#N)cc4)c3)o2)cc1` [Example 54, 2-chloro-N-{(2R)-1-(4-cyanophenyl)-3-[(methylsulfonyl)amino]propan-2-yl}-5-[5-({[(1R)-1-(4-methylphenyl)ethyl]amino}methyl)-2-furyl]benzamide], the IC50 in assay [1] came out at 705 nM.

Turning to `COc1cc(Cl)c(C(=O)N[C@@H](CN[C@H]2CC[C@@H](N)CC2)Cc2ccc(C#N)cc2)cc1-c1ccc(CN[C@H](C)c2ccc(C)cc2)o1` [Example 87, N-[(2R)-1-[(4-aminocyclohexyl)amino]-3-(4-cyanophenyl)propan-2-yl]-2-chloro-4-methoxy-5-[5-({[(1R)-1-(4-methylphenyl)ethyl]amino}methyl)-2-furyl]benzamide], the 50% inhibitory concentration (IC50) in assay [1] is 216 nM.
